# Laboratory results: the SangsterLogP compilation
row,logP,Compound
1,2.18,Nc1ccc2oc3cc(-c4nnn[nH]4)ccc3c(=O)c2c1
2,2.31,O=c1c2ccc(-c3nnn[nH]3)cc2oc2ccc(OCCO)cc12
3,3.67,CCOc1ccc2oc3cc(-c4nn[nH]n4)ccc3c(=O)c2c1
4,4.06,CCSc1ccc2oc3cc(-c4nnn[nH]4)ccc3c(=O)c2c1
5,2.3,Nc1ccc2oc3cc(C(=O)O)ccc3c(=O)c2c1
6,5,CCCCOc1ccc2oc3cc(C(=O)O)ccc3c(=O)c2c1
7,2.46,O=C(O)c1ccc2c(=O)c3cc(OCCO)ccc3oc2c1
8,3.15,COc1ccc2oc3cc(-c4nnn[nH]4)ccc3c(=O)c2c1
9,2.86,O=c1c2ccccc2oc2cc(-c3nn[nH]n3)ccc12
10,2.52,N#Cc1ccc2oc3ccc(-c4nnn[nH]4)cc3c(=O)c2c1
11,3.73,CCCC(=O)OCCOc1ccc2oc3cc(-c4nnn[nH]4)ccc3c(=O)c2c1
12,2.87,CC(O)COc1ccc2oc3cc(C(=O)O)ccc3c(=O)c2c1 (configuration not stated)
13,2.83,O=c1c2ccc(-c3nnn[nH]3)cc2oc2ccc([N+](=O)[O-])cc12
14,3.37,COc1ccc2oc3cc(C(=O)O)ccc3c(=O)c2c1
15,4.36,CCSc1ccc2oc3cc(C(=O)O)ccc3c(=O)c2c1
16,4,CCCC(=O)OCCOc1ccc2oc3cc(C(=O)O)ccc3c(=O)c2c1
17,3.12,O=C(O)c1ccc2c(=O)c3cc([N+](=O)[O-])ccc3oc2c1
18,2.62,O=C(O)c1ccc2c(=O)c3cc(OCCOCCO)ccc3oc2c1
19,3.99,CCOc1ccc2oc3cc(C(=O)O)ccc3c(=O)c2c1
20,4.69,CCCCOc1ccc2oc3cc(-c4nnn[nH]4)ccc3c(=O)c2c1
21,3.12,COCc1ccc2oc3cc(C(=O)O)ccc3c(=O)c2c1
22,4.59,CCCc1ccc2oc3cc(C(=O)O)ccc3c(=O)c2c1
